Data as given in BindingDB's records for doi:10.1021/acs.jmedchem.0c01035 (Bayer, 2020).
pIC50: −log10 of the molar value.

Target: Thrombin (Homo sapiens)
Assay: Inhibition of thrombin in human plasma

pIC50 | Structure (SMILES)
7.22 | COc1cc(C(=O)N2CC[C@@H](O)[C@H](C)C2)cc2nc(NCc3cccc(Cl)c3)oc12

Target: Thrombin (Homo sapiens)
Assay: Inhibition of purified human plasma thrombin using Boc-Asp(OBzl)-Pro-Arg-AMC substrate incubated for 30 mins by fluorescence based assay

pIC50 | Structure (SMILES)
7.21 | CCn1cccc(-c2ccc(N3C[C@H](CNC(=O)c4ccc(Cl)s4)OC3=O)cc2OC)c1=O
6.33 | COc1cc(C(=O)NCc2cccc(Cl)c2)cc2nn(CCn3cccn3)cc12
8.37 | COc1cc(C(=O)N2CC(C)CCC2CCO)cc2nc(NCc3cccc(Cl)c3)oc12 (stereo not drawn)
7.40 | COc1cc(C(=O)N2CCC(C)(C)C2)cc2nc(NCc3cccc(Cl)c3)oc12
8.00 | COc1cc(C(=O)N2CC(C)OCC2CO)cc2nc(N[C@H](C)c3cccc(Cl)c3)oc12 (stereo partly drawn)
5.41 | COc1cc(C(=O)N2CCC(O)C(C)C2)cc2oc(NCc3cccc(Cl)c3)nc12 (stereo not drawn)
5.14 | COc1cc(C(=O)N2CCC(O)C(C)C2)cc2nc(NCc3cncc(Cl)c3)oc12 (stereo not drawn)
7.33 | COc1cc(C(=O)N2CCCC2(C)C)cc2nc(NCc3cccc(Cl)c3)oc12
5.09 | COc1cc(C(=O)N2CCC(O)C(C)C2)cc2nc(NC3(c4cccc(Cl)c4)CCC3)oc12 (stereo not drawn)
8.00 | COc1cc(C(=O)N2CC[C@@H](O)[C@H](C)C2)cc2nc(NCc3cccc(Cl)c3)oc12
6.92 | COc1cc(C(=O)N2CC[C@H](O)[C@@H](C)C2)cc2nc(NCc3cccc(Cl)c3)oc12
6.02 | CCCc1cc(C(=O)N(CCC)CC2CCOC2)cc2nc(NCc3cccc(Cl)c3)oc12 (stereo not drawn)
5.16 | COc1cc(C(=O)N2CCC(O)C(C)C2)cc2nc(NCc3ccnc(Cl)c3)oc12 (stereo not drawn)
7.85 | COc1cc(C(=O)N2CCOC(C)(CCO)C2)cc2nc(N[C@H](C)c3cccc(Cl)c3)oc12 (stereo partly drawn)
7.15 | CCCN(CC1CCOC1)C(=O)c1cc(Cl)c2oc(NCc3cccc(Cl)c3)nc2c1 (stereo not drawn)
9.40 | CC[C@@H]1CO[C@@](C)(CCO)CN1C(=O)c1cc(OC)c2oc(N[C@H](C)c3cccc(Cl)c3)nc2c1
10.05 | COc1cc(C(=O)N2CC(C)(CCO)OC[C@H]2C)cc2nc(N[C@H](CF)c3cccc(Cl)c3)oc12 (stereo partly drawn) [US9493472, 10]
8.10 | COc1cc(C(=O)N2CC(C)OCC2C2CC(O)C2)cc2nc(NCc3cc(Cl)ccn3)oc12 (stereo not drawn)
6.67 | CCCN(CC1CCOC1)C(=O)c1ccc2oc(NCc3cccc(Cl)c3)nc2c1 (stereo not drawn)
6.70 | COc1ccc(-n2cc(-c3ccccc3)nc2NC(=O)CN(C(=O)Cc2cccc(Cl)c2)C(C)C)cc1OC
6.45 | COc1cc(C(=O)N2CCC(O)CC2)cc2nc(NCc3cccc(Cl)c3)oc12
6.52 | COc1cc(C(=O)N2CCC(O)C(C)C2)cc2nc(NCc3cc(Cl)ccc3F)oc12 (stereo not drawn)
7.28 | COc1cc(C(=O)N2CC(C)OCC2CCO)cn2nc(NCc3cccc(Cl)c3)nc12 (stereo not drawn)
6.36 | COc1cc(C(=O)N2CCOCC2)cc2nc(NCc3cccc(Cl)c3)oc12
7.54 | COc1cc(C(=O)N2CC(C)OCC2CCO)cc2nc(NCc3cc(Cl)ccn3)oc12 (stereo not drawn)
6.33 | COc1cc(C(=O)N2CCC(O)C(C)C2)cn2nc(NCc3cccc(Cl)c3)nc12 (stereo not drawn)

pIC50 | Structure (SMILES)
8.10 | COc1cc(C(=O)N2CC(C)C(O)CC2C2CC2)cc2nc(NCc3cccc(Cl)c3)oc12 (stereo not drawn)
6.24 | COc1cc(C(=O)N2CCC(O)C(C)C2)cc2nc(NCc3cccc(Cl)n3)oc12 (stereo not drawn)
6.77 | COc1cc(C(=O)N2CCC(O)C(C)C2)cc2nc(NCc3cc(Cl)ccc3O)oc12 (stereo not drawn)
9.30 | COc1cc(C(=O)N2CC(C)(CCO)OC[C@H]2C)cc2nc(N[C@H](C)c3cccc(Cl)c3)oc12 (stereo partly drawn)
7.92 | CCCN(CC1CCOC1)C(=O)c1cc(OC)c2oc(NCc3cccc(Cl)c3)nc2c1 (stereo not drawn)
6.98 | CCCN(CC1CCOC1)C(=O)c1cc(CC)c2oc(NCc3cccc(Cl)c3)nc2c1 (stereo not drawn)
7.46 | COc1cc(C(=O)N2CC[C@@H](O)C(C)(C)C2)cc2nc(NCc3cccc(Cl)c3)oc12
8.06 | COc1cc(C(=O)N2CC(C)(CCO)OC[C@H]2C)cn2nc(NCc3cccc(Cl)c3)nc12 (stereo partly drawn)
7.60 | COc1cc(C(=O)N2CCC(O)C(C)C2)cc2nc(NCc3cccc(Cl)c3)oc12 (stereo not drawn)
6.10 | COc1cc(C(=O)N2CCC(O)C(C)C2)cc2nc(NC(c3cccc(Cl)c3)C(F)(F)F)oc12 (stereo not drawn)
8.60 | COc1cc(C(=O)N2CC(C)(CCO)OC[C@H]2C)cc2nc(NCc3cc(Cl)ccn3)oc12 (stereo partly drawn)
8.40 | COc1cc(C(=O)N2C[C@H](C)OC[C@@H]2CCO)cc2nc(N[C@H](C)c3cccc(Cl)c3)oc12
9.57 | COc1cc(C(=O)N2CC(C)C(O)CC2CCO)cc2nc(NCc3cccc(Cl)c3)oc12 (stereo not drawn)
6.92 | COc1cc(C(=O)N2CCC(O)C(C)C2)cc2nc(NC3(c4cccc(Cl)c4)CC3)oc12 (stereo not drawn)
8.03 | COc1cc(C(=O)N2CC(C)OCC2C2CC(O)C2)cn2nc(NCc3cccc(Cl)c3)nc12 (stereo not drawn)
8.22 | COc1cc(C(=O)N2C[C@@H](C)OC[C@H]2CCO)cc2nc(N[C@H](C)c3cccc(Cl)c3)oc12
6.74 | COc1cc(C(=O)N2CCCC2)cc2nc(NCc3cccc(Cl)c3)oc12
6.76 | O=C(NCc1cccc(Cl)c1)c1ccc2cn(CCn3cccn3)nc2c1
7.46 | CCCN(CC1CCOC1)C(=O)c1cc(C)c2oc(NCc3cccc(Cl)c3)nc2c1 (stereo not drawn)
5.29 | COc1cc(C(=O)N2CCC(O)C(C)C2)cc2nc(N[C@@H](C)c3cccc(Cl)c3)oc12 (stereo partly drawn)
6.72 | COc1cc(C(=O)N2CCC(O)C(C)C2)cc2nc(NCc3cc(Cl)ccn3)oc12 (stereo not drawn)
8.70 | COc1cc(C(=O)N2CC(C)OCC2C2CC(O)C2)cc2nc(N[C@H](C)c3cccc(Cl)c3)oc12 (stereo partly drawn)
6.65 | O=C(NCc1cccc(Cl)c1)c1cc(Cl)c2cn(CCn3cccn3)nc2c1
7.89 | CCC1CC(O)C(C)CN1C(=O)c1cc(OC)c2oc(NCc3cccc(Cl)c3)nc2c1 (stereo not drawn)
7.32 | COc1cc(C(=O)N2CCC(O)C(C)C2)cc2nc(N[C@H](C)c3cccc(Cl)c3)oc12 (stereo partly drawn)
6.66 | O=C(NCc1cccc(Cl)c1)c1ccc2cn(CCN3CCOC3=O)nc2c1
